Holding throughout (assay): relative viability (nuclei count vs DMSO), 5 days (fraction); higher = more cells survive
Compound in assay [1]: CC(C)N(CCCNC(=O)Nc1ccc(C(C)(C)C)cc1)C[C@H]1O[C@@H](n2ccc3c(N)ncnc32)[C@H](O)[C@@H]1O + C[C@]1(O)C[C@@H](c2nc(-c3ccc4ccc(-c5ccccc5)nc4c3)c3c(N)nccn32)C1 [Linsitinib] (partner 1 µM)
A digest of the protocol: (§1)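 Lung cancer cell lines in 1536-well plates were dosed by pin tool the day after seeding, either with one drug alone or with a fixed anchor-drug dose plus five library-drug doses (not always all listed) in √10 steps. After 5 days, cells were fixed and their nuclei stained in one step (final 0.05% Triton X-100, 1% formaldehyde, 1 ug/ml Hoechst), then counted on 4× images. Relative viability is the nuclei count in treated wells divided by that in vehicle wells. Values are medians of duplicate plates.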

Compound in assay [2]: CC(C)N(CCCNC(=O)Nc1ccc(C(C)(C)C)cc1)C[C@H]1O[C@@H](n2ccc3c(N)ncnc32)[C@H](O)[C@@H]1O + CS(=O)(=O)N1CCN(Cc2cc3nc(-c4cccc5[nH]ncc45)nc(N4CCOCC4)c3s2)CC1 [Pictilisib] (partner 1 µM)
A digest of the protocol:
as §1

Compound in the assay “Shikonin + Foretinib”: CC(C)=CC[C@@H](O)C1=CC(=O)c2c(O)ccc(O)c2C1=O [Shikonin] + COc1cc2c(Oc3ccc(NC(=O)C4(C(=O)Nc5ccc(F)cc5)CC4)cc3F)ccnc2cc1OCCCN1CCOCC1 [Foretinib] (partner 0.25 µM)
A digest of the protocol: as §1

Compound in assay [3]: CC(C)N(CCCNC(=O)Nc1ccc(C(C)(C)C)cc1)C[C@H]1O[C@@H](n2ccc3c(N)ncnc32)[C@H](O)[C@@H]1O + C[C@@H](Oc1cc(-c2cnn(C3CCNCC3)c2)cnc1N)c1c(Cl)ccc(F)c1Cl [Crizotinib] (partner 1 µM)
The essentials: as §1

The results in this text go back to the supplement of paper PMC10307832.

Regarding UMC-11, the relative viability in assay [1] (first compound 0.08 µM) stood at 0.953; in assay [1] (first compound 0.253 µM) it was 0.96; in assay [1] (first compound 0.8 µM), 1.07; in assay [1] (first compound 2.53 µM) it was 1.02; in assay [1] (first compound 8 µM), 0.889; in assay [2] (first compound 0.08 µM), 0.683. Further, the relative viability in assay [2] (first compound 0.253 µM) amounted to 0.662; in assay [2] (first compound 0.8 µM) it was 0.783; in assay [2] (first compound 2.53 µM), 0.805; in assay [2] (first compound 8 µM) it was 0.745; with Shikonin + Foretinib (first compound 0.01 µM) it was 1.02; in the assay with Shikonin + Foretinib (first compound 0.1 µM), 1.13. Also, the relative viability with Shikonin + Foretinib (first compound 0.3162 µM) was determined as 1.13; in the assay with Shikonin + Foretinib (first compound 1 µM) it was 1.07; in assay [3] (first compound 0.08 µM), 0.579; in assay [3] (first compound 0.253 µM), 0.706; in assay [3] (first compound 0.8 µM), 0.723; in assay [3] (first compound 2.53 µM), 0.656. The relative viability in assay [3] (first compound 8 µM) was determined as 0.636.
